Measurements published in US20150258057A1, “FATTY ACID DERIVATIVES FOR TREATING INFECTIOUS DISEASES” (IMARKO RESEARCH S.A., priority 2014, published 2015).

Key:
Test in all cases: diffusion method in agar medium (zone of inhibition)
Assay type in all cases: cell-based
[1] = tested on: Bacillus coagulans (spores); conditions: for inhibition of growth (in words): Table 2
Method: (§1) The antibiotic activity of zinc and copper soaps (salts of copper caprylate, caprate, caproate and laurate; and salts of zinc caprylate, caprate, caproate and laurate) was measured according to the diffusion method in agar medium, the protocol of which is detailed below.
(§2) This method consists in depositing on inoculated agar culture medium sterile absorbent paper discs impregnated with the antibiotic solution to be examined.
(§3) The activity of an antibiotic is estimated by comparing the inhibition of growth of sensitive microorganisms caused respectively by known concentrations of the antibiotic to be examined and of a reference substance.
(§4) The diluents and culture media used are: • 0.85% physiological saline (AES, reference PHYW-AEB110389), • buffered peptone water (bioMerieux, reference 42111), • Sabouraud glucose agar with chloramphenicol (bioMerieux, reference 42620), • Neutral MRS agar pH=6.4 (AES, reference AEB621756N), • Trypcase soy agar (bioMerieux, reference 41466), • Cetrimide agar (bioMerieux, reference 43565).
(§5) The agar culture medium is poured into a petri dish. Once solidified, the surface of the agar is inoculated in a layer with the selected microorganism. Then fitter paper discs, 6.6 mm in diameter, impregnated with the various solutions to be tested are placed on the surface. The petri dishes are left at room temperature for about 1 hour to allow the substances to diffuse in the agar.
(§6) The cultures are then incubated at 32.5° C.±2.5° C. The agar media and the incubation conditions are suited to the inoculated microorganism.
(§7) The diameter of the zone of inhibition is a function of the concentration, diffusion and activity of the tested substance placed on the filter.

Bifidobacterium = conditions: for inhibition of growth (in words): Table 2
Method: as §1, §2, §3, §4, §5, §6, §7

[2] = tested on: Lactobacillus acidophilus; conditions: for inhibition of growth (in words): Table 2
Method: as §1, §2, §3, §4, §5, §6, §7

Lactobacillus paracasei = conditions: for inhibition of growth (in words): Table 2
Method: as §1, §2, §3, §4, §5, §6, §7

Lactobacillus plantarum = conditions: for inhibition of growth (in words): Table 2
Method: as §1, §2, §3, §4, §5, §6, §7

Saccharomyces cerevisiae = conditions: for inhibition of growth (in words): Table 2
Method: as §1, §2, §3, §4, §5, §6, §7

Pseudomonas putida = conditions: 200 mg in 2 ml of DMSO, disc 6.6 mm
Method: as §1, §2, §3, §4, §5, §6, §7

[3] = 200 mg in 2 ml of DMSO, disc 6.6 mm

Row | SMILES | inhibition of growth (in words) [1] | inhibition of growth (in words) (Bifidobacterium) | inhibition of growth (in words) [2] | inhibition of growth (in words) (Lactobacillus paracasei) | inhibition of growth (in words) (Lactobacillus plantarum) | inhibition of growth (in words) (Saccharomyces cerevisiae) | Diameter of inhibition [1, 3] [mm] | Diameter of inhibition (Bifidobacterium; [3]) [mm] | Diameter of inhibition [2, 3] [mm] | Diameter of inhibition (Lactobacillus paracasei; [3]) [mm] | Diameter of inhibition (Lactobacillus plantarum; [3]) [mm] | Diameter of inhibition (Pseudomonas putida) [mm] | Diameter of inhibition (Saccharomyces cerevisiae; [3]) [mm]
1 | CCCCCCCCCCCC(=O)OCC(O)CO (stereo not shown) [Glycerol monolaurate] | inhibition | no inhibition | inhibition | no inhibition | no inhibition | no inhibition | – | – | – | – | – | – | –
2 | CCCCCCCC(=O)OCC(O)CO (stereo not shown) [Glyceryl caprylate] | inhibition | inhibition | inhibition | inhibition | inhibition | inhibition | – | – | – | – | – | – | –
3 | CCCCCCCC(=O)Oc1cc(C)ccc1C(C)C [Thymol caprylate] | – | – | – | – | – | – | 8.5 | 9 | 8.2 | 7.75 | 6.9 | 7.86 | 7.28
